Reference: publication PMC12635268, “Novel antimicrobial peptides and peptide-microbiome crosstalk in Appalachian salamander skin” (NPJ Biofilms and Microbiomes, 2025)
Like-named read-outs stand apart in the source and are kept apart here.

Key:
A. baumannii ATCC 17978 = test: microbe, parasite or virus in culture; settings: for Bacterial MIC: A. baumannii 17978; for MIC: Acinetobacter baumannii
Procedure, shortened: (§1)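 Broth microdilution MIC in cation-adjusted Mueller-Hinton broth, final inoculum 1 × 10⁵ CFU/mL. Peptides in 0.02% TFA + 0.04% BSA, 2-fold series 0.25 to 128 μg/mL, duplicate, 37 °C for 20 h without agitation. Growth imaged; MIC read visually per CLSI.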

E. cloacae ATCC 13047 = test: microbe, parasite or virus in culture; settings: for Bacterial MIC: E. cloacae 13047; for MIC: Enterobacter cloacae
Procedure, shortened: as §1

E. cloacae ATCC 35549 = test: microbe, parasite or virus in culture; settings: for Bacterial MIC: E. cloacae 35549; for MIC: Enterobacter cloacae
Procedure, shortened: as §1

E. coli ATCC 43888 = test: microbe, parasite or virus in culture; settings: for Bacterial MIC: E. coli 43888; for MIC: Escherichia coli
Procedure, shortened: as §1

[1] = system: Batrachochytrium dendrobatidis Bd-GPL strain JEL404; settings: slope of growth, positive = inhibition, negative = no inhibition
HepG2 (ATCC HB-8065) = test: HepG2 cytotoxicity, MTT assay; type: cell-based, human; settings: at concentrations up to 5.25 μg/mL (5.25 to 0.15 µg/mL), 48 h
Method: For any inhibitory peptides, HepG2 (ATCC HB-8065) cytotoxicity was tested to determine half-maximal inhibitory concentration (IC50) of human cells. The procedure involved seeding 96-well plates with 2.5 × 10^4 cells per well in 170 µL of culture medium, followed by an overnight incubation at 37 °C in a 5% CO₂ atmosphere. Subsequently, cells were exposed to varying concentrations of the test peptides, ranging from 5.25 µg/mL to 0.15 µg/mL, and incubated for an additional 48 h. Cell viability was assessed using the MTT assay, as previously described. Absorbance measurements were obtained using a PerkinElmer EnSight plate reader. The IC50 values for each compound were calculated by fitting the data to a sigmoidal dose-response curve with variable slope using GraphPad Prism software. Each assay plate included three controls: (a) background control—wells without cells and without drug; (b) positive control—wells with cells and 10 µg/mL of a known toxic compound; and (c) DMSO control—wells with cells and 0.2% DMSO, the highest concentration of DMSO used in the assay, which is non-toxic to the cells.

K. pneumoniae 4640 = settings: K. pneumoniae 4640
[2] = CAMHB, 1 × 10⁵ CFU/mL, 0.25 to 128 μg/mL, 37 °C 20 h, duplicate, read visually (CLSI)

C[C@H]1COc2c(N3CCN(C)CC3)c(F)cc3c(=O)c(C(=O)O)cn1c23 [Levofloxacin, reference compound]
≤ 0.25 µg/mL: MIC (A. baumannii ATCC 17978; ATCC17978, read-out: Bacterial MIC) | MIC (E. cloacae ATCC 13047; ATCC13047, read-out: Bacterial MIC) | MIC (E. cloacae ATCC 35549; ATCC35549, read-out: Bacterial MIC) | MIC (E. coli ATCC 43888; ATCC43888, read-out: Bacterial MIC)
<= 0.250 µg/mL: Bacterial MIC (A. baumannii ATCC 17978; Historical run 15NOV23) | Bacterial MIC (A. baumannii ATCC 17978; Historical run 19APRIL23) | Bacterial MIC (A. baumannii ATCC 17978; Historical run 22NOV23) | Bacterial MIC (A. baumannii ATCC 17978; Week 2 (12/14/2023)) | Bacterial MIC (E. cloacae ATCC 13047; Historical run 15NOV23) | Bacterial MIC (E. cloacae ATCC 13047; Historical run 19APRIL23) | Bacterial MIC (E. cloacae ATCC 13047; Historical run 22NOV23) | Bacterial MIC (E. cloacae ATCC 13047; Week 2 (12/14/2023)) | Bacterial MIC (E. cloacae ATCC 35549; Historical run 15NOV23) | Bacterial MIC (E. cloacae ATCC 35549; Historical run 19APRIL23) | Bacterial MIC (E. cloacae ATCC 35549; Historical run 22NOV23) | Bacterial MIC (E. cloacae ATCC 35549; Week 2 (12/14/2023)) | Bacterial MIC (E. coli ATCC 43888; Historical run 15NOV23) | Bacterial MIC (E. coli ATCC 43888; Historical run 19APRIL23) | Bacterial MIC (E. coli ATCC 43888; Historical run 22NOV23) | Bacterial MIC (E. coli ATCC 43888; Week 2 (12/14/2023))
0.25 µg/mL: MIC (A. baumannii ATCC 17978; ATCC17978, 20 h) | MIC (E. cloacae ATCC 13047; ATCC13047, 20 h) | MIC (E. cloacae ATCC 35549; ATCC35549, 20 h) | MIC (E. coli ATCC 43888; ATCC43888, 20 h)

CC[C@H](C)[C@H](NC(=O)[C@H](CCCCN)NC(=O)[C@H](CCC(=O)O)NC(=O)[C@H](CCCCN)NC(=O)[C@H](CO)NC(=O)[C@H](CCCCN)NC(=O)[C@H](CCCNC(=N)N)NC(=O)[C@H](Cc1ccccc1)NC(=O)[C@H](Cc1ccccc1)NC(=O)[C@H](CC(=O)O)NC(=O)CNC(=O)[C@H](CC(C)C)NC(=O)[C@@H](N)CC(C)C)C(=O)NCC(=O)N[C@@H](CCCCN)C(=O)N[C@@H](CCC(=O)O)C(=O)N[C@@H](Cc1ccccc1)C(=O)N[C@@H](CCCCN)C(=O)N[C@@H](CCCNC(=N)N)C(=O)N[C@H](C(=O)N[C@H](C(=O)N[C@@H](CCC(N)=O)C(=O)N[C@@H](CCCNC(=N)N)C(=O)N[C@H](C(=O)N[C@@H](CCCCN)C(=O)N[C@@H](CC(=O)O)C(=O)N[C@@H](Cc1ccccc1)C(=O)N[C@@H](CC(C)C)C(=O)N[C@@H](CCCNC(=N)N)C(=O)N[C@@H](CC(N)=O)C(=O)N[C@@H](CC(C)C)C(=O)N[C@H](C(=O)N1CCC[C@H]1C(=O)N[C@@H](CCCNC(=N)N)C(=O)N[C@H](C(=O)N[C@@H](CCC(=O)O)C(=O)N[C@@H](CO)C(=O)O)[C@@H](C)O)C(C)C)[C@@H](C)CC)C(C)C)[C@@H](C)CC [LL-37, reference compound]
-55.6571%: Bd inhibition score (percent inhibition), mean ([1]; synthesized peptide 125 μg/mL)
-44.2834%: Bd inhibition score (percent inhibition), mean ([1]; synthesized peptide 15.625 μg/mL)
-81.8611%: Bd inhibition score (percent inhibition), mean ([1]; synthesized peptide 250 μg/mL)
-318.384%: Bd inhibition score (percent inhibition), mean ([1]; synthesized peptide 500 μg/mL)
-39.8112%: Bd inhibition score (percent inhibition), mean ([1]; synthesized peptide 62.5 μg/mL)
4 µg/mL: MIC (A. baumannii 5075; [2]) | Bacterial MIC (A. baumannii 5075; Week 1 (12/6/2023)) | Bacterial MIC (A. baumannii 5075; Week 2 (12/14/2023))
-68.3967%: Bd inhibition score (percent inhibition), mean ([1]; synthesized peptide 31.25 μg/mL)
64 µg/mL: MIC (K. pneumoniae 4640; [2]) | Bacterial MIC (K. pneumoniae 4640; Week 1 (12/6/2023)) | Bacterial MIC (K. pneumoniae 4640; Week 2 (12/14/2023))
No HepG2 cytotox was observed: HepG2 cytotoxicity in words (HepG2 (ATCC HB-8065))
